Laboratory results as given in publication PMC3842914, “Meleagrin, a New FabI Inhibitor from Penicillium chryosogenum with at Least One Additional Mode of Action” (PLoS ONE, 2013).
≈ marks a conversion by molar mass, not a printed value. Like-named read-outs stand apart in the source and are kept apart here.

How the values were obtained:
[1] = system: incorporation of [1-14C] acetate into membrane fatty acids in S. aureus; test: [14C] acetate incorporation into membrane fatty acids in S. aureus; assay type: cell-based, Staphylococcus aureus; details: for IC50: Staphylococcus aureus, read-out: IC50 [14C] acetate incorporation; for Inhibition of acetate incorporation relative to the less active compounds 1, 3, and 4: [1-14C] acetate into membrane fatty acids in S. aureus
Method: To monitor the effects of compound 1 on lipid, DNA, RNA, protein, and cell wall biosynthesis, its effects on the incorporation of [1-^14C] acetate (50 mCi/mmol), [2-^14C] thymidine (59.8 mCi/mmol), [U-^14C] uridine (539 mCi/mmol), L-[U-^14C] leucine (306 mCi/mmol) or L-[U-^14C] isoleucine (329 mCi/mmol), and N-acetyl-D-[1-^14C] glucosamine (58.1 mCi/mmol) into S. aureus and S. pneumoniae were measured as described previously. S. aureus was exponentially grown to an A650 of 0.2 in Mueller–Hinton broth. S. pneumoniae was grown in tryptic soy broth supplemented with 5% sheep blood. […] An equal volume of DMSO solvent was added to the untreated control. After incubation with the radiolabeled precursors at 37°C for 1 h, followed by centrifugation, the cell pellets were washed twice with PBS buffer. After acetate incorporation, the total cellular lipids were extracted with chloroform-methanol-water. The incorporated radioactivity in the chloroform phase was measured by scintillation counting. For the other precursors, incorporation was terminated by adding 10% (w/v) TCA and cooling on ice for 20 min. The precipitated material was collected on Whatman GF/C glass microfiber filters, washed with TCA and ethanol, dried, and counted using a scintillation counter. […] In all experiments, known antibacterial agents were included as positive controls.
We measured their effects on the incorporation of [1-^14C] acetate into membrane fatty acids in S. aureus.

[2] = molecular target: T1, S. aureus FabI (Staphylococcus aureus, UniProt Q6GI75); test: S. aureus FabI enzyme assay (NADPH use at 340 nm, t-o-NAC thioester substrate); assay type: biochemical
T1 construct: made in house
T1 sequence (Q6GI75 1-256): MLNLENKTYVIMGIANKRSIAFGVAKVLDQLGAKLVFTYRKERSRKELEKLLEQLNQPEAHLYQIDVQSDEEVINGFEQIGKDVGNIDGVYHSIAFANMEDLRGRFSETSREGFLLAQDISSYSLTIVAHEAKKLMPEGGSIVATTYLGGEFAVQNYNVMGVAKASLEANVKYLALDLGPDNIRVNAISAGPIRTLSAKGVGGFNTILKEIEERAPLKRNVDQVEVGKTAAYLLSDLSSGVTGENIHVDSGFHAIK
Excerpt: S. aureus FabI and E. coli FabI enzymes were cloned, overexpressed, and purified as described previously. The wild-type fabK gene was amplified by PCR from genomic DNA obtained from Streptococcus pneumoniae KCTC 5412 by using the primers 5′-[…]-3′ and 5′-[…]-3′, which contained NdeI and XhoI restriction sites, respectively. After the DNA sequence was confirmed, the gene was cloned into the pET22b vector (Novagen, Gibbstown, NJ, USA). The construct was transformed into E. coli BL21 (DE3) for expression following induction with isopropylthiogalactoside. The C-terminal His-tagged protein was purified as described previously. Assays were conducted in half-area, 96-well microtiter plates. The compounds were dissolved in DMSO and evaluated in 100-μL assay mixtures containing components specific for each enzyme (see below). Reduction of the trans-2-octenoyl N-acetylcysteamine (t-o-NAC thioester) substrate analog was measured spectrophotometrically following the utilization of NADH or NADPH at 340 nm at 30°C for the linear period of the assay. S. aureus FabI assays contained 50 mM sodium acetate (pH 6.5), 200 μM t-o-NAC thioester, 200 μM NADPH, and 150 nM S. aureus FabI.
NADH was used as a cofactor rather than NADPH for the E. coli FabI assay. Substrate concentrations used for the Lineweaver–Burk plot were 100, 200, 300, and 400 μM, whereas the concentrations of the cofactor were 100, 200, 400, and 600 μM. The rate of decrease in the amount of NADPH in each reaction was measured with a microtiter enzyme-linked immunosorbent assay (ELISA) reader by using the SOFTmax PRO software (Molecular Devices, Sunnyvale, CA, USA). The inhibitory activity was calculated according to the following formula: % of inhibition = 100× [1− (rate in the presence of compound/rate in the untreated control)]. IC50 values were calculated by fitting the data to a sigmoid equation. An equal volume of DMSO solvent was used for the untreated control. FabK assays contained 100 mM sodium acetate (pH 6.5), 2% glycerol, 200 mM NH4Cl, 50 µM t-o-NAC thioester, 200 µM NADH, and 150 nM S. pneumoniae FabK.

[3] = system: E. coli KCTC 1924; test: MIC by broth microdilution, E. coli KCTC 1924; assay type: cell-based; details: Escherichia coli
Method: (§1) Whole-cell antimicrobial activity was determined by broth microdilution as described previously. The test strains except for S. pneumoniae were grown to mid-log phase in Mueller–Hinton broth and diluted 1,000-fold in the same medium. Cells (10^5/mL) were inoculated into Mueller–Hinton broth and dispensed at 0.2 mL/well into a 96-well microtiter plate. S. pneumoniae was grown in tryptic soy broth supplemented with 5% sheep blood. MICs were determined in triplicate by serial 2-fold dilutions of test compounds. […] Bacterial growth was determined by measuring the absorption at 650 nm by using a microtiter ELISA reader.

[4] = system: S. aureus RN4220 (pE194-fabI); test: Overexpression assay, MIC for fabI-overexpressing S. aureus RN4220 (pE194-fabI); assay type: cell-based; details: Staphylococcus aureus, read-out: MIC S. aureus (pE194-fabI)
Method: as §1
An overexpression assay using S. aureus RN4220, S. aureus RN4220 (pE194), and S. aureus RN4220 (pE194-fabI) was conducted to perform target validation of FabI inhibitors as described previously. Additionally, both fabI- and fabK-overexpressing E. coli were constructed to test a multitarget effect of the compounds. The wild-type fabI gene from the genomic DNA of E. coli W3110 was amplified by PCR by using the primers 5′-[…]-3′ and 5′-[…]-3′. The wild-type fabK gene from the genomic DNA of S. pneumoniae KCTC 5412 was amplified by PCR by using the primers 5′-[…]-3′ and 5′-[…] […]-3′. The resulting products were cloned into the pBAD-TOPO TA expression vector (Invitrogen, Carlsbad, CA, USA) to yield the pBAD-fabI and pBAD-fabK recombinant plasmids, which placed the expression of the genes fabI and fabK, respectively, under the control of the arabinose promoter. Recombinant pBAD-fabI and pBAD-fabK were then introduced into the pump-negative (tolC) E. coli EW1b via electroporation to generate E. coli EW1b (pBAD-fabI) and E. coli EW1b (pBAD-fabK), respectively.

[5] = with respect to trans-2-octenoyl N-acetylcysteamine
[6] = KCTC1924, read-out: MIC E. coli
[7] = S. aureus FabI, read-out: IC50 saFabI
[8] = KCTC1924, E. coli KCTC 1924, read-out: MIC E. coli

| Compound | IC50 [1] | IC50 [2] | Ki ([2]; with respect to NADPH) | Ki [2, 5] | Mode of FabI inhibition ([2]; with respect to NADPH) | Mode of FabI inhibition [2, 5] | MIC [3, 6] | MIC [4] | Inhibition of acetate incorporation relative to the less active compounds 1, 3, and 4 [1] | IC50 [2, 7] | MIC [3, 8] | MIC ([3]; KCTC1924, 24 h, read-out: MIC E. coli) |
| --- | --- | --- | --- | --- | --- | --- | --- | --- | --- | --- | --- | --- |
| C=CC(C)(C)C12C=C(O)C(=O)N3/C(=C/c4cnc[nH]4)C(=O)NC31N(OC)c1ccccc12 (stereo not drawn) [Compound 1, meleagrin] | 40.3 µM | 40.1 µM | 32.3 µM | 39.8 µM | mixed inhibition | mixed | 32 µg/mL (≈ 73.8 µM) | 256 µg/mL (≈ 591 µM) |  |  |  |  |
| C=CC(C)(C)C12C=C(OC)C(=O)N3/C(=C/c4cnc[nH]4)C(=O)N(C)C31N(OC)c1ccccc12 (stereo not drawn) [Compound 5, O,N^14-dimethylmeleagrin] | 16.3 µM |  |  |  |  |  |  | 128 µg/mL (≈ 277 µM) | approximately 2 fold | 13.5 µM | 8 µg/mL (≈ 17.3 µM) |  |
| C=CC(C)(C)C12C=C(OC)C(=O)N3/C(=C/c4cnc[nH]4)C(=O)NC31N(OC)c1ccccc12 (stereo not drawn) [Compound 3, oxaline] | 33.5 µM | 38.7 µM |  |  |  |  |  | 256 µg/mL (≈ 572 µM) |  |  | 32 µg/mL (≈ 71.5 µM) |  |
| Oc1cc(Cl)ccc1Oc1ccc(Cl)cc1Cl [Triclosan, reference compound] | 0.04 µM |  |  |  |  |  | 0.01 µg/mL (≈ 0.0345 µM) | 1.6 µg/mL (≈ 5.53 µM) |  |  |  | 0.02 µg/mL (≈ 0.0691 µM) |
| C=CC(C)(C)C12C=C(O)C(=O)N3/C(=C/c4cnc[nH]4)C(=O)NC31Nc1c(Br)cccc12 (stereo not drawn) [Compound 7] | > 200 µM |  |  |  |  |  |  |  |  | > 200 µM | > 128 µg/mL |  |
| C=CC(C)(C)C12C=C(OC)C(=O)N3/C(=C/c4cnc[nH]4)C(=O)N(C)C31Nc1ccccc12 (stereo not drawn) [Compound 6, O,N^14-dimethylglandicolin] | 19.8 µM | 13.1 µM |  |  |  |  | 8 µg/mL (≈ 18.5 µM) | 128 µg/mL (≈ 297 µM) | approximately 2 fold |  |  |  |
| C=CC(C)(C)C12C=C(O)C(=O)N3/C(=C/c4cnc[nH]4)C(=O)N(C)C31N(OC)c1ccccc12 (stereo not drawn) [Compound 4, N^14-methylmeleagrin] | 35.7 µM | 48 µM |  |  |  |  | 32 µg/mL (≈ 71.5 µM) | 256 µg/mL (≈ 572 µM) |  |  |  |  |
